# Patent publication US4031219A, “Bis-homophthalimides and salts thereof” (Boehringer Ingelheim GmbH, priority 1975, dated 1977)
# Where two headings read alike, the source gives them in different places.
# Legend:
# [1] = system: isolated electrically stimulated left auricle of the guinea pig; assay: Effect on the effective refractory period of the isolated electrically stimulated left auricle of the guinea pig (maximum driving frequency); details: Cavia porcellus, Tyrode solution 37° C, mean change 5 and 10 minutes after addition, graphically determined from dose-response-curves, read-out: EC50 (concentration which reduces the maximum driving frequency by 50%)
# Experimental: 1. Effect on the effective refractory period of the isolated electrically stimulated left auricle of the guinea pig
# Guinea pigs of both sexes were killed by a blow on the neck. After opening the thorax, the heart was quickly removed and transferred to a Tyrode solution (37° C). The auricles were therein dissected, and only the left auricles were used. Electrical stimulation was performed by a Grass Stimulator, S4G, with square wave impulses of 1 millisecond duration and a stimulation voltage of 12 V. The auricles were suspended in Tyrode solution at 37° C containing NaCl: 136.8 mval/liter; KCl: 2.68 mval/liter; MgCl2 : 0.2625 mval/liter; NaH2 PO4 : 0.417 mval/liter; NaHCO3 : 11.9 mval/liter; CaCl2 : 1.8 mval/liter; glucose: 3 gm. The solution was continuously oxygenated with 98% O2 and 2% CO2. The isometric contractions were measured with a force-displacement transducer and recorded on a Grass-polygraph (P5).
# The auricles were stimulated with 0.5 Hz. The maximum driving frequency was measured by increasing the stimulation rate every 10 seconds by 1 Hz. Measurements were performed three times every 5 minutes before and 5 and 10 minutes after the addition of the test compound. During the rest periods between the measurements the stimulation frequency was 0.5 Hz.
# The effect of the compound was calculated as the mean change of maximum driving frequency 5 and 10 minutes after adding the compound. The compound was tested by increasing the concentration to obtain dose-response-curves and to calculate the EC50.
# The maximum driving frequency is measured by increasing the stimulation rate. When the interval between two stimuli is shortened, a stimulation rate is reached at which every second stimulation falls into the refractory period of the foregoing contraction and will not be answered with a contraction. Thus, the maximum driving frequency is a measure for the effective refractory period. Compounds which reduce the maximum driving frequency prolong the refractory period.
# From the dose-response-curves the following concentrations, which reduce the maximum driving frequency by 50%, were graphically determined: […]
# [2] = system: chloroform-induced ventricular fibrillation in mice; assay: Antiarrhythmic activity against chloroform-induced ventricular fibrillation in mice; format: in vivo; details: Mus musculus, iv, 1 minute before inducing ventricular fibrillation; male mice 20-25 gm; read-out: ED50 (dose which reduces the number of animals which show fibrillations by 50%)
# Experimental: 2. Antiarrhythmic activity against chloroform-induced ventricular fibrillation in mice
# Upon putting a mouse into a chloroform-saturated atmosphere, the animal is anaesthetized after 40 seconds, the spontaneous respiration stops, and after 20 seconds more, gasping respiration is seen.
# During 1 minute after opening the thorax spontaneous ventricular fibrillation can be obtained in nearly all the animals or can be induced in others by touching the heart with tweezers.
# Pretreatment with antiarrhythmic compounds reduces the number of animals which show fibrillations in a dose-dependent way. The dose which reduces the number of animals by 50% (ED50) is calculated by means of dose-response-curves, and the standard error is determined [Miller, L.C. and Tainter, M.L., Proc. Soc. Exp. Biol. Med. 57, 261 (1944)].
# The tests were performed on male mice having a body weight of 20-25 gm. Each dose was tested on 10 animals.
# The compounds were administered intravenously 1 minute before inducing ventricular fibrillation.
# Acute toxicity in mice = details: mouse, in vivo, observation time: 14 days
# Experimental: The acute toxicity of the test compounds was determined in mice (observation time: 14 days) after oral and/or intravenous application. The LD50 was calculated from the percentage of animals which died within the observation time after administration of various doses [see J. Pharmacol. exp. Therap. 96, 99 (1949)].
# [3] = intravenous, read-out: LD50 i.v.
EC50 [1],SMILES,ED50 [2],LD50 at 336 h (Acute toxicity in mice; [3]),"LD50 at 336 h (Acute toxicity in mice; oral, read-out: LD50 p.o.)"
2 µg/mL,"CCN(CCCN1C(=O)c2ccccc2C(C)(C)C1=O)CCCN1C(=O)c2ccccc2C(C)(C)C1=O [C, n,n-bis-[3-(3,4-dihydro-4,4-dimethyl-1,3-dioxo-2(1H)-isoquinolyl)-propyl]-ethylamine]",0.5 mg/kg,–,–
10 µg/mL,"CC1(C)C(=O)N(CCCCNCCCN2C(=O)c3ccccc3C(C)(C)C2=O)C(=O)c2ccccc21 [H, [3-(3,4-dihydro-4,4-dimethyl-1,3-dioxo-2(1H)-isoquinolyl)-propyl]-[4-(3,4-dihydro-4,4-dimethyl-1,3-dioxo-2(1H)-isoquinolyl)-butyl]-amine]",3 mg/kg,–,–
2.7 µg/mL,"CC1(C)C(=O)N(CCCNCCN2C(=O)c3ccccc3C(C)(C)C2=O)C(=O)c2ccccc21 [G, n-[2-(3,4-dihydro-4,4-dimethyl-1,3-dioxo-2(1H)-isoquinolyl)-ethyl]-N-[3-(3,4-dihydro-4,4-dimethyl-1,3-dioxo-2(1H)-isoquinolyl)-propyl]-amine]",4.7 mg/kg,–,–
4.2 µg/mL,"COc1ccc2c(c1)C(=O)N(CCN(C)CCCN1C(=O)c3ccccc3C(C)(C)C1=O)C(=O)C2(C)C [D, n-[2-(3,4-dihydro-7-methoxy-4,4-dimethyl-1,3-dioxo-2-(1H)-isoquinolyl)-ethyl]-N-[3-(3,4-dihydro-4,4-dimethyl-1,3-dioxo-2(1H)-isoquinolyl)-propyl]-methylamine]",3.6 mg/kg,–,–
–,"CN(CCN1C(=O)c2ccccc2C(C)(C)C1=O)CCN1C(=O)c2ccccc2C(C)(C)C1=O [F, n,n-bis-[2-(3,4-dihydro-4,4-dimethyl-1,3-dioxo-2(1H)-isoquinolyl)-ethyl]-methylamine]",4.6 mg/kg,–,–
5.5 µg/mL,"CN(CCCN1C(=O)c2ccccc2C(C)(C)C1=O)CCCN1C(=O)c2ccccc2C(C)(C)C1=O [A, n,n-bis-[3-(3,4-dihydro-4,4-dimethyl-1,3-dioxo-2-(1H)-isoquinolyl)-propyl]-methylamine]",1.2 mg/kg,–,–

SMILES,EC50 [1],ED50 [2],LD50 at 336 h (Acute toxicity in mice; [3]),"LD50 at 336 h (Acute toxicity in mice; oral, read-out: LD50 p.o.)"
"CC1(C)C(=O)N(CCNCCN2C(=O)c3ccccc3C(C)(C)C2=O)C(=O)c2ccccc21 [I, bis-[2-(3,4-dihydro-4,4-dimethyl-1,3-dioxo-2(1H)-isoquinolyl)-ethyl]-amine]",2.2 µg/mL,4.7 mg/kg,15 mg/kg,315 mg/kg
"CC1(C)C(=O)N(CCCCNCCN2C(=O)c3ccccc3C(C)(C)C2=O)C(=O)c2ccccc21 [J, [2-(3,4-dihydro-4,4-dimethyl-1,3-dioxo-2(1H)-isoquinolyl)-ethyl]-[4-(3,4-dihydro-4,4-dimethyl-1,3-dioxo-2(1H)-isoquinolyl)-butyl]-amine]",1.8 µg/mL,2.8 mg/kg,10.5 mg/kg,210 mg/kg
"CC1(C)C(=O)N(CCCNCCCN2C(=O)c3ccccc3C(C)(C)C2=O)C(=O)c2ccccc21 [B, N,N-bis-[3-(3,4-dihydro-4,4-dimethyl-1,3-dioxo-2(1H)-isoquinolyl)propyl]-amine]",8 µg/mL,2.5 mg/kg,–,123 mg/kg
